Laboratory results: patent US20100292289A1 (priority 2007, published 2010)
Like-named read-outs stand apart in the source and are kept apart here.

Key:
Format in all cases: cell-based
CB1 receptor [1] = target: T1, CB1 receptor (Homo sapiens, UniProt P21554); test: FLIPR calcium flux assay, agonist format, CB1; details: Emax of reference agonist CP-55,940 as 100%; for % Activation Agonist CB1: 1 μM
Description: (§1) A FLIPR assay was conducted to monitor agonist and antagonist selectivity for compounds of the invention against the CBI and GLP-1 receptors. Percentage activation and percentage inhibition values were determined for each compound on each of the GPCRs listed above. Agonist selectivity was determined upon initial addition of compounds followed by 10 minute incubation at 25° C. Following compound incubation, reference agonists were added at EC80 to determine percentage inhibition.
(§2) Agonist percentage activation determinations were obtained by assaying sample compounds and referencing the Emax control for each of the GPCRs profiled. Antagonist percentage inhibition determinations were obtained by assaying sample compounds and referencing the control EC80 wells for each of the GPCRs profiled. The protocol design is as follows:
(§3) Unless specified otherwise, all sample compounds were diluted in 100% anhydrous DMSO including all serial dilutions. Occasionally sample compounds were provided in a different solvent, in this case all master stock dilutions were performed in the specified diluent. All control wells contained identical solvent final concentrations as sample compound wells.
(§4) Sample compounds were transferred from a master stock solution into a daughter plate that was used in the assay. Each sample compound was diluted into assay buffer (1×HBSS with 20 mM HEPES) at an appropriate concentration to obtain final concentrations.
(§5) All sample compounds were plated at 1 μM in duplicate for assaying against all GPCRs. Reference agonists were handled as mentioned above serving as assay control. These reference agonists were handled as described above for both EMax and EC80 control wells. Assay was read for 90 seconds using the FLIPRTETRA. (This assay run added sample compounds and reference agonist to respective rows.) At the completion of the first “Single Addition” assay run, assay plate was removed from the FLIPRTetra and placed at 25° C. for 10 minutes.
(§6) All plates were subjected to appropriate baseline corrections. Once baseline corrections were processed, maximum fluorescence values were exported and data manipulated to calculate percentage activation, percentage inhibition, Z′, EC50, and IC50. Percentage activation data was calculated using Emax as 100% control. Percentage inhibition was calculated using EC80 as 0% inhibition.

GLP-1 receptor [2] = target: T2, GLP-1 receptor (Homo sapiens, UniProt P43220); test: FLIPR calcium flux assay, agonist format, GLP-1; details: Emax of reference ligand Glucagon as 100%; for % Activation Agonist GLP-1: 1 μM
Description: as §1, §2, §3, §4, §5, §6

CB1 receptor [3] = target: T1, CB1 receptor; test: FLIPR calcium flux assay, antagonist format, CB1; details: reference agonist CP-55,940 at EC80 as 0% inhibition; for % Inhibition Antagonist CB1: 1 μM
Description: as §1, §2, §3, §4
(§7) Using the EC50 values determined previously, stimulated all pre-incubated sample compound and reference antagonist (if applicable) wells with EC80 of reference agonist. Read for 90 seconds using the FLIPRTETRA. (This assay added reference agonist to respective wells—then fluorescence measurements were collected to calculate percentage inhibition.)
as §6

GLP-1 receptor [4] = target: T2, GLP-1 receptor; test: FLIPR calcium flux assay, antagonist format, GLP-1; details: for inhibition at 1 µM: read-out: % Inhibition Antagonist GLP-1
Description: as §1, §2, §3, §4, §7, §6

[5] = 1 μM, reference ligand Glucagon at EC80 as 0% inhibition

T2 sequence (P43220 24-463): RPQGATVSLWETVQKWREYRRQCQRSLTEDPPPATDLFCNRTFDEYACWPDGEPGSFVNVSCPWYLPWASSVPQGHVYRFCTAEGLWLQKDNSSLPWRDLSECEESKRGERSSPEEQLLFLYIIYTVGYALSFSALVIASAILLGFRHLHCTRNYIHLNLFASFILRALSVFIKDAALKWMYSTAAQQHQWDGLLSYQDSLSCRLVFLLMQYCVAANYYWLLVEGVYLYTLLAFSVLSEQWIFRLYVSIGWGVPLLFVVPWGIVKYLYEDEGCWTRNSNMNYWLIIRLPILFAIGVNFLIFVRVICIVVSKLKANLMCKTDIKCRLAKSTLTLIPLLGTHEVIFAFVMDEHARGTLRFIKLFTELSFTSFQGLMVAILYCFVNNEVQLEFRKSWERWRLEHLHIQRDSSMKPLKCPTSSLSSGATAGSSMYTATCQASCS
T1 sequence (P21554 whole entry): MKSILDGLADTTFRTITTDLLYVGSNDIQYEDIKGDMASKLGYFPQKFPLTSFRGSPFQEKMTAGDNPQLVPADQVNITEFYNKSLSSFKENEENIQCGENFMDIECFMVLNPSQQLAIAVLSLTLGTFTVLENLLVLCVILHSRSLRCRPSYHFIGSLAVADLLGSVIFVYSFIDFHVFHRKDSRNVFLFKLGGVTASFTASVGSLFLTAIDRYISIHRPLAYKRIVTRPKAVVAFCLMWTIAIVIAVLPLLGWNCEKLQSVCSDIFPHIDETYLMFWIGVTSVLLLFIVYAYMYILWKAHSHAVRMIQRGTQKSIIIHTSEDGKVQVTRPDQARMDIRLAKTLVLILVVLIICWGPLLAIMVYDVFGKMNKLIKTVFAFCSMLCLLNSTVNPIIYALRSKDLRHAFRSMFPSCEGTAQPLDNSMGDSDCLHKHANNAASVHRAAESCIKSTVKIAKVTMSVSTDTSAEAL

Compound	activation at 1 µM (CB1 receptor [1]) [%]	activation at 1 µM (GLP-1 receptor [2]) [%]	inhibition at 1 µM (CB1 receptor [3]) [%]	inhibition at 1 µM (GLP-1 receptor [4]; [5]) [%]	% Activation Agonist CB1 (CB1 receptor [1]) [%]	% Activation Agonist GLP-1 (GLP-1 receptor [2]) [%]	% Inhibition Antagonist CB1 (CB1 receptor [3]) [%]	% Inhibition Antagonist GLP-1 (GLP-1 receptor [4]; [5]) [%]	inhibition at 1 µM (GLP-1 receptor [4]) [%]
CN(CCC(Oc1ccc(C(F)(F)F)cc1)c1ccccc1)C(=O)C1CCn2c(C(=O)c3ccccc3)ccc21 (centres unmarked) [Compound 13]	0.9	0.8	37.7	-15.4					
CC(C)Cc1ccc(C2(C(=O)N(C)CC[C@H](Oc3ccc(C(F)(F)F)cc3)c3ccccc3)CCC2)cc1 [Compound 30b]					−0.8	−3.4	48.3	9.7	
CCc1ccc(C(C)C(=O)N(C)CC[C@@H](Oc2ccc(C(F)(F)F)cc2)c2ccccc2)cc1 (some centres unmarked) [Compound 34a]	-2.9	-0.8	99	-1					
CC(C(=O)N(C)CC[C@H](Oc1ccc(C(F)(F)F)cc1)c1ccccc1)c1ccc(CC2CCCC2=O)cc1 (some centres unmarked) [Compound 29b]					−0.2	6.2	31.2	0.0	
C[C@H](C(=O)N(C)CCC(Oc1ccc(C(F)(F)F)cc1)c1ccccc1)c1cccc(C(=O)c2ccccc2)c1 (some centres unmarked) [Compound 14]	1.2	-2.4	56.6	17.2					
C[C@@H](C(=O)N(C)CC[C@@H](Oc1ccc(C(F)(F)F)cc1)c1ccccc1)c1ccc(C(F)(F)F)cc1 [Compound 33c]	-0.9	0.8	80.1	0.2					
CC(C(=O)N(C)CC[C@H](Oc1ccc(C(F)(F)F)cc1)c1ccccc1)c1ccc(CN(C)C)cc1 (some centres unmarked) [Compound 25b]	0.2	-3.3	15.2	6.9					
CC(C)Cc1cccc(C(C)C(=O)N(C)CC[C@H](Oc2ccc(C(F)(F)F)cc2)c2ccccc2)c1 (some centres unmarked) [Compound 35b]	1.1	3.8	38.9	0.3					
CC(C)Cc1ccc(C2(C(=O)N(C)CC[C@@H](Oc3ccc(C(F)(F)F)cc3)c3ccccc3)CC2)cc1 [Compound 36a]	-1.2	4.4	59.9	11					
C[C@H]1CCN(C(C(=O)NCCOc2ccc(C(F)(F)F)cc2)c2nc(-c3ccc(C(F)(F)F)cc3)no2)C[C@@H]1COc1ccc(C(F)(F)F)cc1 (some centres unmarked) [Compound 20]					1.9	7.5	14.5	−14.4	
C[C@@H]1CCN(C(C(=O)NCC[C@@H](Oc2ccc(C(F)(F)F)cc2)c2ccccc2)c2nc(-c3ccc(C(F)(F)F)cc3)no2)C[C@@H]1COc1ccc(C(F)(F)F)cc1 (some centres unmarked) [Compound 18]					6.2	20.6			
CN(Cc1ccccc1)C1CCN(C(C(=O)NCCOc2ccc(C(F)(F)F)cc2)c2nc(-c3ccc(C(F)(F)F)cc3)no2)CC1 (centres unmarked) [Compound 24]					1.6	5.9	4.6	−1.6	
CC(C)Cc1ccccc1C(C)C(=O)N(C)CC[C@@H](Oc1ccc(C(F)(F)F)cc1)c1ccccc1 (some centres unmarked) [Compound 38a]			98.5						-20.2
CC(C)Cc1ccc(CC(=O)N(C)CC[C@H](Oc2ccc(C(F)(F)F)cc2)c2ccccc2)cc1 [Compound 32b]					2.1	−1.8	23.0	−0.8	
O=C(Cc1nc(-c2ccc(C(F)(F)F)cc2)no1)NCC[C@@H](Oc1ccc(C(F)(F)F)cc1)c1ccccc1 [Compound 23]					7.8	11.9			
C[C@@H](C(=O)N(C)CC[C@H](Oc1ccc(C(F)(F)F)cc1)c1ccccc1)c1ccc(C(F)(F)F)cc1 [Compound 33e]	1.7	0.4	0.8	9.4					

Compound	activation at 1 µM (CB1 receptor [1]) [%]	activation at 1 µM (GLP-1 receptor [2]) [%]	inhibition at 1 µM (CB1 receptor [3]) [%]	inhibition at 1 µM (GLP-1 receptor [4]; [5]) [%]	% Activation Agonist CB1 (CB1 receptor [1]) [%]	% Activation Agonist GLP-1 (GLP-1 receptor [2]) [%]	% Inhibition Antagonist CB1 (CB1 receptor [3]) [%]	% Inhibition Antagonist GLP-1 (GLP-1 receptor [4]; [5]) [%]	inhibition at 1 µM (GLP-1 receptor [4]) [%]
CN(Cc1ccccc1)C1CCN(C(C(=O)NCC[C@@H](Oc2ccc(C(F)(F)F)cc2)c2ccccc2)c2nc(-c3ccc(C(F)(F)F)cc3)no2)CC1 (some centres unmarked) [Compound 16]	6.9	21.3							
O=C(c1ccccc1)c1ccc2n1CCC2C(=O)NCC[C@@H](Oc1ccc(C(F)(F)F)cc1)c1ccccc1 (some centres unmarked) [Compound 5a]	0.3	0.4	48.7	-6.3					
CC(C(=O)N(C)CC[C@@H](Oc1ccc(C(F)(F)F)cc1)c1ccccc1)c1ccc(CN(C)C)cc1 (some centres unmarked) [Compound 25a]	0.8	-2.7	79.9	5.7					
CCc1ccc(C(C)C(=O)N(C)CC[C@H](Oc2ccc(C(F)(F)F)cc2)c2ccccc2)cc1 (some centres unmarked) [Compound 34b]	-1.9	0.2	76.4	1.6					
COc1ccc2c(c1)c(CC(=O)NCC[C@@H](Oc1ccc(C(F)(F)F)cc1)c1ccccc1)c(C)n2C(=O)c1ccc(Cl)cc1 [Compound 7a]	-0.5	4.2	46.9	0					
CC(C)Cc1ccc(C2(C(=O)N(C)CC[C@@H](Oc3ccc(C(F)(F)F)cc3)c3ccccc3)CCC2)cc1 [Compound 30a]					1.0	−3.7	84.6	7.5	
O=C(NCC[C@@H](Oc1ccc(C(F)(F)F)cc1)c1ccccc1)C(c1nc(-c2ccc(C(F)(F)F)cc2)no1)N1CCC[C@@H](COc2ccc(C(F)(F)F)cc2)C1 (some centres unmarked) [Compound 19]					0.5	6.5			
C[C@H](C(=O)N(C)CC[C@H](Oc1ccc(C(F)(F)F)cc1)c1ccccc1)c1ccc(C(F)(F)F)cc1 [Compound 33f]	-0.5	-3.5	34	11.5					
C[C@H](C(=O)N(C)CC[C@@H](Oc1ccc(C(F)(F)F)cc1)c1ccccc1)c1ccc(C(F)(F)F)cc1 [Compound 33d]	1.4	0.6	82.8	11.4					
CC(C(=O)N(C)CC[C@H](Oc1ccc(C(F)(F)F)cc1)c1ccccc1)c1ccc(C(F)(F)F)cc1 (some centres unmarked) [Compound 33b]	0.5	17.6	45.8	~0					
CC(C)Cc1cccc(C(C)C(=O)N(C)CC[C@@H](Oc2ccc(C(F)(F)F)cc2)c2ccccc2)c1 (some centres unmarked) [Compound 35a]	-1	-0.9	80.5	7.7					
CC(C(=O)N(C)CC[C@@H](Oc1ccc(C(F)(F)F)cc1)c1ccccc1)c1ccc(C(F)(F)F)cc1 (some centres unmarked) [Compound 33a]					−0.3	0.9	90.7	11.4	
CC(C)Cc1ccc(CC(=O)N(C)CC[C@@H](Oc2ccc(C(F)(F)F)cc2)c2ccccc2)cc1 [Compound 32a]	4.5	2.9	90.7	0.8					
C[C@H]1CCN(C(C(=O)NCC[C@@H](Oc2ccc(C(F)(F)F)cc2)c2ccccc2)c2nc(-c3ccc(C(F)(F)F)cc3)no2)C[C@@H]1COc1ccc(C(F)(F)F)cc1 (some centres unmarked) [Compound 17]					8.6	9.4			
CC(C)Cc1ccc(C2(C(=O)N(C)CC[C@H](Oc3ccc(C(F)(F)F)cc3)c3ccccc3)CC2)cc1 [Compound 36b]	-1.1	0.5	15.5	5.5					
COc1ccc2c(c1)c(CC(=O)N(C)CCC(Oc1ccc(C(F)(F)F)cc1)c1ccccc1)c(C)n2C(=O)c1ccc(Cl)cc1 (centres unmarked) [Compound 15]	0	-0.2	34.4	-5.1					
